# Source: ChEMBL document CHEMBL1146354, “Synthesis, cytotoxicity, and DNA topoisomerase II inhibitory activity of benzofuroquinolinediones” (Bioorg Med Chem, 2007)
# Legend:
# A549 = experiment: Cytotoxicity against human A549 cells by SRB assay; assay type: functional, cell-based
# [1] = target: T1, DNA topoisomerase 1 (Homo sapiens) (UniProt P11387); experiment: Inhibition of human topoisomerase 1-mediated DNA relaxation activity at 5 uM after 10 mins relative to control
# T1 sequence (whole entry): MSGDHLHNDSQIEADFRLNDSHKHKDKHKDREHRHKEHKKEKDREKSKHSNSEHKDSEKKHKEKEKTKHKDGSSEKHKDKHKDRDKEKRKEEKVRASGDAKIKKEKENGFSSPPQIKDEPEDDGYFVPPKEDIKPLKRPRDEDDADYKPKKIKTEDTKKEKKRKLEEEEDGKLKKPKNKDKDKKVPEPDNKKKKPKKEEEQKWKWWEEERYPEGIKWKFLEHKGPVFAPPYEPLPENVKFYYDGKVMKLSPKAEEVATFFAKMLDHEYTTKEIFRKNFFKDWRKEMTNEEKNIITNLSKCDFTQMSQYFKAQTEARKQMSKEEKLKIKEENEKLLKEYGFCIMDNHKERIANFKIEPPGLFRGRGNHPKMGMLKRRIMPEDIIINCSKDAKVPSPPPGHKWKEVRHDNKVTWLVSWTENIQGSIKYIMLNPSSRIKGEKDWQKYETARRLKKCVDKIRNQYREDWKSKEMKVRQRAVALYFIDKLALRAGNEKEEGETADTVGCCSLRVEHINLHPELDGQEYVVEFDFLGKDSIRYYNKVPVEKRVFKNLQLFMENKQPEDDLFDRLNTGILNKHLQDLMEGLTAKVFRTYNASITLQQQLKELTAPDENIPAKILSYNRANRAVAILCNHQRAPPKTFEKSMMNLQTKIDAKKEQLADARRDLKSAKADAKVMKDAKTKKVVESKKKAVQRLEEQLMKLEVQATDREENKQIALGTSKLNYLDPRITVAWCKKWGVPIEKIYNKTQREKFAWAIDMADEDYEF
# XF498 = experiment: Cytotoxicity against human XF498 cells by SRB assay; assay type: functional, cell-based
# HL-60 = experiment: Cytotoxicity against human HL60 cells by SRB assay; assay type: functional, cell-based
# HT-1080 = experiment: Cytotoxicity against human HT1080 cells by SRB assay; assay type: functional, cell-based
# Homo sapiens [2] = species on record: Homo sapiens; experiment: Inhibition of human topoisomerase 2-mediated KDNA decatenation activity at 5 uM after 10 mins relative to control
# SK-MEL-2 = experiment: Cytotoxicity against human SK-MEL-2 cells by SRB assay; assay type: functional, cell-based
# HCT-116 = experiment: Cytotoxicity against human HCT116 cells by SRB assay; assay type: functional, cell-based
# SK-OV-3 = experiment: Cytotoxicity against human SK-OV-3 cells by SRB assay; assay type: functional, cell-based
# SNU-638 = experiment: Cytotoxicity against human SNU638 cells by SRB assay; assay type: functional, cell-based
# [3] = Inhibition of human topoisomerase 2 […]
# Homo sapiens [4] = species on record: Homo sapiens; experiment: Inhibition of human topoisomerase 2-mediated KDNA decatenation activity at 200 uM after 10 mins relative to control
# DNA topoisomerase 1 = target: T2, DNA topoisomerase 1 (Homo sapiens, UniProt P11387); experiment: Inhibition of human topoisomerase 1 […]
# T2 sequence (P11387 whole entry): T1 sequence (whole entry)
inhibition [1] [%],inhibition (Homo sapiens [2]) [%],IC50 [3] [nM],inhibition (Homo sapiens [4]) [%],IC50 (DNA topoisomerase 1) [nM],SMILES,IC50 (A549) [nM],IC50 (XF498) [nM],IC50 (HL-60) [nM],IC50 (HT-1080) [nM],IC50 (SK-MEL-2) [nM],IC50 (HCT-116) [nM],IC50 (SK-OV-3) [nM],IC50 (SNU-638) [nM]
0,59,–,–,–,CC(COc1cc2oc3c(c2cc1Cl)C(=O)c1cccnc1C3=O)N(C)C (centres undefined),90,140,220,110,140,140,150,180
14,59,–,–,–,CC(C)N(CCOc1cc2oc3c(c2cc1Cl)C(=O)c1ccccc1C3=O)C(C)C,> 20000,> 20000,> 20000,> 20000,> 20000,> 20000,> 20000,> 20000
0,67,–,–,–,CC(COc1ccc2c3c(oc2c1)C(=O)c1ncccc1C3=O)N(C)C (centres undefined),20,100,180,60,90,70,80,110
0,35,–,–,–,CC(C)N(CCOc1cc2oc3c(c2cc1Cl)C(=O)c1cccnc1C3=O)C(C)C,180,910,700,220,730,410,750,530
–,–,78400,89,–,COc1cc([C@@H]2c3cc4c(cc3[C@@H](O[C@@H]3O[C@@H]5CO[C@@H](C)O[C@H]5[C@H](O)[C@H]3O)[C@H]3COC(=O)[C@H]23)OCO4)cc(OC)c1O [ETOPOSIDE],–,–,370,–,–,1870,–,–
0,68,–,–,–,CC(COc1cc2oc3c(c2cc1Cl)C(=O)c1ccccc1C3=O)N(C)C (centres undefined),450,550,630,650,500,340,650,1140
10,36,–,–,–,CC(C)N(CCOc1ccc2c3c(oc2c1)C(=O)c1ccccc1C3=O)C(C)C,2010,3170,1110,1020,1530,1390,3550,2570
0,24,–,–,–,CC(CN(C)C)Oc1ccc2c3c(oc2c1)C(=O)c1ncccc1C3=O (centres undefined),60,120,90,170,150,80,150,140
0,11,–,–,–,CC(CN(C)C)Oc1cc2oc3c(c2cc1Cl)C(=O)c1cccnc1C3=O (centres undefined),100,170,60,100,150,130,150,100
0,47,–,–,–,CCN(CC)CCOc1cc2oc3c(c2cc1Cl)C(=O)c1cccnc1C3=O,90,400,310,150,240,130,250,140
6,88,–,–,–,CC(CN(C)C)Oc1cc2oc3c(c2cc1Cl)C(=O)c1ccccc1C3=O (centres undefined),620,550,670,490,340,420,550,100
19,50,–,–,–,CCN(CC)CCOc1cc2oc3c(c2cc1Cl)C(=O)c1ccccc1C3=O,1590,> 20000,2270,2730,5730,1520,> 20000,2770
14,100,1190,–,42000,CC(COc1ccc2c3c(oc2c1)C(=O)c1ccccc1C3=O)N(C)C (centres undefined),210,4690,390,340,2150,2200,19000,840
–,78,2670,–,–,COc1cccc2c1C(=O)c1c(O)c3c(c(O)c1C2=O)C[C@@](O)(C(=O)CO)C[C@@H]3O[C@H]1C[C@H](N)[C@H](O)[C@H](C)O1 [DOXORUBICIN],150,40,40,60,70,620,290,60
0,71,–,–,–,CC(C)N(CCOc1ccc2c3c(oc2c1)C(=O)c1ncccc1C3=O)C(C)C,370,940,80,180,940,180,1020,450
12,91,–,–,–,CCN(CC)CCOc1ccc2c3c(oc2c1)C(=O)c1ccccc1C3=O,1090,> 20000,650,2190,> 20000,1680,> 20000,3110
0,100,680,–,64300,CCN(CC)CCOc1ccc2c3c(oc2c1)C(=O)c1ncccc1C3=O,50,140,250,70,160,60,270,140
12,84,–,–,59500,CC(CN(C)C)Oc1ccc2c3c(oc2c1)C(=O)c1ccccc1C3=O (centres undefined),370,1750,250,270,1520,270,2260,880
